Values of other authors in patent US10463707B2, “Process for preparing herbal extracts” (MOLEAC PTE LTD., priority 2015, dated 2019).

Settings: Chen et al. Planta Med 2009

SMILES: C/C=C\c1cc(OC)c(OC)cc1OC [beta asarone]
- Safe limits for beta asarone consumption: 0.115 mg per person per day
- Safe limits for beta asarone consumption (equivalent) (equivalent to the per-person limit): 0.002 mg/kg body weight/day
